Values quoted from earlier work in patent US11083740B2, “Cancer therapy” (NED Biosystems, Inc., priority 2013, dated 2021).

Columns and labels:
[1] = in vivo
[2] = test system: hormone refractory PC-3 prostate cancer cells; settings: PC-3 cells
HUVECs [3] = test system: HUVECs
[4] = test system: pancreatic carcinoma cells
[5] = test system: cultured bovine granulosa cells; settings: AMPK-dependent mechanism
HUVECs [6] = settings: partially AMPK-dependent
[7] = in vivo; remark: listed apart in the source
[8] = in vivo; remark: listed apart in the source

O=C(O)CCCCC1CCSS1 (stereo not drawn) [Alpha-Lipoic Acid, 1,2-dithiolane-3-pentanoic acid]
bioavailability when taken with a meal [1]: decreases

O=c1c(-c2ccc(O)cc2)coc2cc(O)cc(O)c12 [Genistein]
IGF-1-stimulated cell growth [2]: significant inhibition

COc1ccc2[nH]cc(CCNC(C)=O)c2c1 [Melatonin, N-acetyl-5-methoxytryptamine]
cell proliferation and migration (HUVECs [3]): inhibits | VEGF protein secreted and produced [4]: decreases

CN(C)C(=N)N=C(N)N [Metformin]
response to IGF1 [5]: reducing cell growth, protein synthesis, MAPK3/1, and P90RSK phosphorylation | proliferation, migration, and MMP-2 and -9 expression (HUVECs [6]): strongly inhibited

CC(C)[C@@H](CC[C@@H](C)[C@H]1CC[C@H]2[C@@H]3[C@H](O)C[C@H]4C[C@@H](NCCCNCCCCN)CC[C@]4(C)[C@H]3CC[C@]12C)OS(=O)(=O)O [Squalamine]
oral bioavailability [7]: does not have high oral bioavailability | maximum tolerated dose (MTD) [8]: 300 mg/m2/day

[Met(5)]-enkephalin [Opioid Growth Factor [Met(5)]-enkephalin]
toxicity of metronomic dosing (50 μg/kg injected subcutaneously twice daily): no toxicity | maximum tolerated dose (30-minute intravenous infusion once or twice weekly): 0.25 mg/kg
